In the supplement of paper PMC5908809:

Experiments:
Assay in all cases: relative IC50 (inflection point of fitted viability curve, relative to fitted max inhibition); higher = less sensitive
Conditions in all cases: 72 h
[1] = system: KAI3 (IL-2 2.5 ng/mL)
Method: (§1)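 Drug sensitivity and resistance testing: 5 concentrations over a 10,000-fold range, 72 h at 37 °C, viability by CellTiter-Glo normalised to DMSO and benzethonium chloride controls. IC50 is the inflection point of a logistic fit (min fixed at 0, max fitted), so it is relative to the fitted maximal inhibition. Kept only where fitted max inhibition is at least 50%.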

[2] = system: SNK-6 (IL-2 2.5 ng/mL)
Method: as §1

[3] = system: NK-92 (IL-2 2.5 ng/mL)
Method: as §1

[4] = system: NKL (IL-2 2.5 ng/mL)
Method: as §1

[5] = system: DERL-7 (IL-2 2.5 ng/mL)
Method: as §1

[6] = system: NK-YS (IL-2 2.5 ng/mL)
Method: as §1

[7] = system: KHYG-1 (IL-2 2.5 ng/mL)
Method: as §1

[8] = system: YT (IL-2 2.5 ng/mL)
Method: as §1

[9] = system: IMC-1 (IL-2 20 ng/mL)
Method: as §1

| Compound | relative IC50 [1] [nM] | relative IC50 [2] [nM] | relative IC50 [3] [nM] | relative IC50 [4] [nM] | relative IC50 [5] [nM] | relative IC50 [6] [nM] | relative IC50 [7] [nM] | relative IC50 [8] [nM] | relative IC50 [9] [nM] |
| --- | --- | --- | --- | --- | --- | --- | --- | --- | --- |
| Nc1nccc(-c2c(-c3ccc(F)cc3)ncn2C2CCCCC2)n1 | 39.1 | 2170 | – | – | – | – | – | – | – |
| CS(=O)(=O)c1ccc(C(=O)Nc2ccc(Cl)c(-c3ccccn3)c2)c(Cl)c1 [Vismodegib] | – | – | 1400 | – | – | – | – | – | – |
| CC1(C)CNc2cc(NC(=O)c3cccnc3NCc3ccncc3)ccc21 [Motesanib] | – | > 10000 | – | – | – | – | – | – | – |
| CCC(C)n1ncn(-c2ccc(N3CCN(c4ccc(OCC5COC(Cn6cncn6)(c6ccc(Cl)cc6Cl)O5)cc4)CC3)cc2)c1=O (stereo unspecified) [Itraconazole] | 1030 | 503 | 572 | 1770 | 1160 | 1080 | 1300 | – | – |
| O=C(c1ccc(OCCN2CCCCC2)cc1)c1c(-c2ccc(O)cc2)sc2cc(O)ccc12 [Raloxifene] | 2770 | 4500 | 3290 | 1680 | 1740 | – | 1740 | 3070 | – |
| O=c1[nH]cc(F)c(=O)[nH]1 [Fluorouracil] | – | 1190 | 526 | 1230 | 2490 | 1040 | 2010 | 820 | – |
| O=C(Nc1cccc(C(F)(F)F)c1)Nc1cc(S(=O)(=O)NC2CC2)ccc1-c1ccsc1 [AGI-6780] | – | – | 1390 | – | – | – | – | – | – |
| Nc1nc(N)c2nc(-c3cccc(O)c3)c(-c3cccc(O)c3)nc2n1 [TG100-115] | – | 132 | – | – | – | – | – | – | – |
| C[C@]1(O)C[C@@H](c2nc(-c3ccc4ccc(-c5ccccc5)nc4c3)c3c(N)nccn32)C1 [Linsitinib] | – | – | – | – | – | – | – | – | > 10000 |
| CS(=O)(=O)c1ccc(-c2cnc(N)c(C(=O)Nc3ccccc3)n2)cc1 [VE-821] | 332 | 795 | – | – | 1540 | – | 1550 | – | 2660 |
| Nc1ncn([C@@H]2O[C@H](CO)[C@@H](O)[C@H]2O)c(=O)n1 [Azacitidine] | 1150 | 384 | 1470 | 3860 | 1440 | 1600 | 1520 | – | 3620 |
| CC[C@H](Nc1ncnc2[nH]cnc12)c1nc2cccc(F)c2c(=O)n1-c1ccccc1 [Idelalisib] | – | 891 | 31.7 | – | 675 | – | – | – | – |
| CC(C)(C)c1cc(NC(=O)Nc2ccc(-c3cn4c(n3)sc3cc(OCCN5CCOCC5)ccc34)cc2)no1 [Quizartinib] | 165 | – | – | – | – | – | 233 | – | > 1000 |
| Cn1cnc2c(F)c(Nc3ccc(Br)cc3F)c(C(=O)NOCCO)cc21 [Binimetinib] | – | > 1000 | – | 19.6 | – | – | – | – | – |
| CO[C@H]1C[C@@H]2CC[C@@H](C)[C@@](O)(O2)C(=O)C(=O)N2CCCC[C@H]2C(=O)O[C@H]([C@H](C)C[C@@H]2CC[C@@H](OP(C)(C)=O)[C@H](OC)C2)CC(=O)[C@H](C)/C=C(\C)[C@@H](O)[C@@H](OC)C(=O)[C@H](C)C[C@H](C)/C=C/C=C/C=C/1C [Ridaforolimus] | – | 0.53 | – | 0.18 | 1.04 | 0.4 | 9.75 | – | > 100 |
| Nc1ncn([C@H]2C[C@H](O)[C@@H](CO)O2)c(=O)n1 [Decitabine] | 26.9 | 31.8 | 392 | – | 436 | 474 | 678 | – | – |
| C=CC(=O)N1CCC[C@@H](n2nc(-c3ccc(Oc4ccccc4)cc3)c3c(N)ncnc32)C1 [Ibrutinib] | – | – | – | – | – | – | – | – | > 1000 |
| CCn1cc(-c2ccnc3[nH]c(-c4cccc(CN(C)C)c4)cc23)c(-c2ccc(NC(=O)N(C)C)cc2)n1 | – | 4.21 | – | – | 17.6 | 12.3 | 39.7 | – | 158 |
| COc1cc(N2CCC(N3CCN(C)CC3)CC2)ccc1Nc1ncnc(Nc2ccccc2S(=O)(=O)C(C)C)n1 [ASP3026] | – | – | – | – | 3110 | – | 1900 | 1830 | 3350 |
